# Results taken from article PMC9151520 (Archives of Toxicology, 2022).
# Values joined by “and” are separate entries in the source; they are usually repeats but may differ in a detail not shown here. Equal entries are not always repeated. Where two headings read alike, the source gives them in different places.
# How the values were obtained:
# [1] = test system: p53 signaling (p53RE-bla HCT-116 cells); assay: cells; assay type: cell-based
# [2] = test system: p53 signaling (p53RE-bla HCT-116 cells); assay: cells; details: Homo sapiens
# [3] = test system: p53 signaling (p53RE-bla HCT-116 cells); assay: cells; assay type: cell-based; set-up: efficacy: unit not given here; details: for Emax: HCT-116, read-out: efficacy
# [4] = rat
# [5] = test system: p53 signaling (p53RE-bla HCT-116 cells)
# [6] = test system: p53 signaling (p53RE-bla HCT-116 cells); remark: listed apart in the source
# [7] = test system: p53 signaling (p53RE-bla HCT-116 cells); assay: cells; details: Homo sapiens; remark: listed apart in the source
# in vitro = details: male, Sprague Dawley, rat, microsomes, pH 7.4
# [8] = test system: p53 signaling (p53RE-bla HCT-116 cells); assay: cells; assay type: cell-based; remark: listed apart in the source
# [9] = rat, microsomes, pH 7.4
# [10] = HCT-116, read-out: p53 activation EC50, HLM
# [11] = read-out: p53 activation EC50, RLM
# [12] = HCT-116, read-out: p53 activation EC50, RLM
# [13] = HCT-116, read-out: p53 activation efficacy, primary screening
SMILES,"EC50 ([3]; Homo sapiens, HCT-116)",Depletion after 16 h of incubation with cells [4],EC50 ([7]; HCT-116),"Emax ([7]; HCT-116, read-out: efficacy)",half-life (in vitro),"EC50 ([8]; Homo sapiens, HCT-116, 0.5 h)","p53 activation EC50, No MS [1]","p53 activation Efficacy, No MS [1]","EC50 [2, 10]","Viability EC50, HLM (p53RE-bla HCT-116 cells)","Viability EC50, No MS (p53RE-bla HCT-116 cells)","Viability EC50, RLM (p53RE-bla HCT-116 cells)","Viability Efficacy, HLM (p53RE-bla HCT-116 cells)","Viability Efficacy, No MS (p53RE-bla HCT-116 cells)","Viability Efficacy, RLM (p53RE-bla HCT-116 cells)","p53 activation EC50, HLM [5]","EC50 [6, 11]","EC50 [7, 12]",EC50 [8],activity outcome in p53-bla assay [6],other results
CCNP(=S)(OC)O/C(C)=C/C(=O)OC(C)C (stereo not drawn) [Propetamphos],2.59 µM,91.32 ± 1.7%,3.05 µM,88.6%,> 120 min,2000 nM,–,–,–,–,–,–,–,–,–,–,–,–,–,–,"p53 activation EC50 [1]: inactive; p53 activation efficacy [1]: inactive; EC50 ([2]; HCT-116, read-out: p53 activation EC50): 731 nM; Emax ([2]; HCT-116, read-out: p53 activation efficacy): 39.9%; Viability EC50 (p53RE-bla HCT-116 cells): inactive; Viability efficacy (p53RE-bla HCT-116 cells): inactive; p53 activation EC50 [5]: inactive; p53 activation efficacy [6]: 78.66 and 99.2667"
CCOP(=O)(OCC)OC(=CCl)c1ccc(Cl)cc1Cl [Chlorfenvinphos],2.54 µM,55.04 ± 4.69%,6.36 µM,66.8%,28.6 ± 1.85 min,20 nM,inactive,inactive,3050 nM,inactive,inactive,inactive,inactive,inactive,inactive,inactive,2.08 µM,3.8 µM,–,–,–
Cc1ccccc1OP(=O)(Oc1ccccc1C)Oc1ccccc1C [Tri-o-cresyl phosphate],3.14 µM,93.36 ± 0.84%,5.32 µM,59.6%,1.17 ± 0.08 min,15800 nM,inactive,inactive,1120 nM,inactive,inactive,inactive,inactive,inactive,inactive,inactive,–,–,–,–,–
Cc1cc(=O)oc2cc(O)ccc12.O [4-Methylumbelliferone hydrate],–,–,–,–,–,–,–,–,–,–,–,–,–,–,–,–,–,–,Inactive,–,"Microsome stability Half-life without cells [9]: 26.74 ± 0.98 min; EC50, p53 activation, cherry pick confirmation [1]: inactive; EC50, p53 activation, primary screening [1]: inactive; Efficacy, p53 activation, cherry pick confirmation [1]: inactive; Efficacy, p53 activation, primary screening [1]: inactive; EC50, viability, cherry pick confirmation (p53RE-bla HCT-116 cells): inactive; EC50, viability, primary screening (p53RE-bla HCT-116 cells): inactive; Efficacy, viability, cherry pick confirmation (p53RE-bla HCT-116 cells): inactive; Efficacy, viability, primary screening (p53RE-bla HCT-116 cells): inactive; efficacy [3]: 25.18 ± 1.7 ( 100.84 ± 7.34 ) %; EC50 ([3]; read-out: EC50): 25.2 µM; EC50, p53 activation, cherry pick confirmation [5]: inactive; EC50, p53 activation, primary screening [5]: inactive; EC50 [6]: 23.3 µM; EC50 ([6]; read-out: EC50, p53 activation, cherry pick confirmation): 25.7 µM; EC50 ([6]; read-out: EC50, p53 activation, primary screening): 33.4 µM"
CCOC(=O)c1cn2nc(OP(=S)(OCC)OCC)cc2nc1C [Pyrazophos],0.79 µM,88.65 ± 0.14%,0.7 µM,32.7%,2.29 ± 0.71 min,41000 nM,inactive,inactive,3670 nM,inactive,inactive,inactive,inactive,inactive,inactive,inactive,0.877 µM,0.765 µM,–,–,–
CCOP(=S)(OCC)SCCSCC [Disulfoton],8.47 µM,93.89 ± 4.12%,9.13 µM,43.3%,> 120 min,–,inactive,inactive,5070 nM,inactive,inactive,inactive,inactive,inactive,inactive,inactive,3.97 µM,7.78 µM,Inactive,induce p53 signaling,Emax ([3]; Homo sapiens): 43.6%
COP(=S)(NC(C)C)Oc1ccc(C)cc1[N+](=O)[O-] (stereo not drawn) [Amiprofos-methyl],–,–,–,–,–,–,–,–,–,–,–,–,–,–,–,–,–,–,Inactive,induce p53 signaling,Microsome stability Half-life without cells [9]: 1.11 min; p53 activation EC50 [1]: inactive; p53 activation efficacy [1]: inactive; Viability EC50 (p53RE-bla HCT-116 cells): inactive; Viability efficacy (p53RE-bla HCT-116 cells): inactive; efficacy [3]: 4.48 ± 0.3 ( 100.11 ± 8.75 ) %; EC50 ([3]; read-out: EC50): 4.48 µM; p53 activation EC50 [5]: inactive; EC50 [6]: 4.69 µM; p53 activation efficacy [6]: 84.8532 and 75.0867
CCOP(=S)(OCC)SCSC(C)(C)C [Terbufos],1.12 µM,98.65 ± 1.08%,2.81 µM,62.7%,1.12 ± 0.2 min,–,–,–,–,–,–,–,–,–,–,–,–,–,Inactive,induce p53 signaling,"p53 activation EC50, cherry pick confirmation [1]: inactive; p53 activation EC50, primary screening [1]: inactive; p53 activation efficacy, cherry pick confirmation [1]: inactive; p53 activation efficacy, primary screening [1]: inactive; Emax [2, 13]: 37.6%; Viability EC50, cherry pick confirmation (p53RE-bla HCT-116 cells): inactive; Viability EC50, primary screening (p53RE-bla HCT-116 cells): inactive; Viability efficacy, cherry pick confirmation (p53RE-bla HCT-116 cells): inactive; Viability efficacy, primary screening (p53RE-bla HCT-116 cells): inactive; Emax ([3]; Homo sapiens): 53.9%; p53 activation EC50, cherry pick confirmation [5]: inactive; p53 activation efficacy, cherry pick confirmation [5]: inactive; EC50 ([7]; HCT-116, read-out: p53 activation EC50, cherry pick confirmation): 1.32 µM; Emax ([7]; HCT-116, read-out: p53 activation efficacy, cherry pick confirmation): 54.3%; Emax [7, 13]: 37.5%"
CCOP(=S)(OCC)Oc1ccc2c(C)c(Cl)c(=O)oc2c1 [Coumaphos],7.03 µM,99.03 ± 0.34%,5.95 µM,–,0.88 ± 0.12 min,–,inactive,inactive,891 nM,inactive,inactive,inactive,inactive,inactive,inactive,inactive,–,–,Inactive,induce p53 signaling,Emax ([3]; Homo sapiens): 68.7%
CCOP(=S)(Oc1cnc(C(C)(C)C)nc1)OC(C)C (stereo not drawn) [Tebupirimfos],1.32 µM,94.85 ± 0.13%,1.23 µM,43.4%,3.59 ± 0.08 min,2170 nM,–,–,–,–,–,–,–,–,–,–,–,–,–,–,p53 activation EC50 [1]: inactive; p53 activation efficacy [1]: inactive; Viability EC50 (p53RE-bla HCT-116 cells): inactive; Viability efficacy (p53RE-bla HCT-116 cells): inactive; p53 activation EC50 [5]: inactive; p53 activation efficacy [6]: 42.005; EC50 ([6]; read-out: p53 activation EC50): 1.63 µM
COP(=S)(OC)Oc1ccc(S(=O)(=O)N(C)C)cc1 [Famphur],3.1 µM,87.7 ± 3.02%,2.46 µM,73.6%,10.8 ± 1.96 min,490 nM,inactive,inactive,2020 nM,inactive,inactive,inactive,inactive,inactive,inactive,inactive,3.1 µM,3.12 µM,–,–,–
CCOP(=S)(OCC)Oc1nc(Cl)c(Cl)cc1Cl [Chlorpyrifos],3.75 µM,92.74 ± 1.38%,3.47 µM,50.6%,1.11 ± 0.07 min,–,inactive,inactive,1780 nM,inactive,inactive,inactive,inactive,inactive,inactive,inactive,2.8 µM,2.92 µM,Inactive,activator of p53 signaling,activity outcome in p53-bla assay [1]: inactive; Emax ([3]; Homo sapiens): 45.2%
CCOP(=S)(OCC)Oc1cc(-c2ccccc2)on1 [Isoxathion],9.77 µM,94.65 ± 0.45%,8.62 µM,46%,2.77 ± 0.25 min,27500 nM,inactive,inactive,4450 nM,inactive,inactive,inactive,inactive,inactive,inactive,inactive,–,–,–,–,–
